# Measured values: the supplement of paper PMC10307832
# Experiments:
# Test in all cases: relative viability (nuclei count vs DMSO), 5 days (fraction); higher = more cells survive
# 201T = system: 201T
# Summary of the method: (§1)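 Relative viability is defined as nuclei in treated wells over nuclei in vehicle wells. Duplicate plates were run and medians reported. Lung cancer cell lines in 1536-well plates were dosed by pin tool one day after seeding, with one drug or with a fixed anchor-drug dose plus five library-drug doses (not always all listed) in √10 steps, and nuclei were counted after 5 days.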
# LU99A = system: LU99A
# Summary of the method: as §1
# NCI-H838 = system: NCI-H838
# Summary of the method: as §1
# NCI-H1651 = system: NCI-H1651
# Summary of the method: as §1
# A-427 = system: A-427
# Summary of the method: as §1
# LK-2 = system: LK-2
# Summary of the method: as §1
# NCI-H1793 = system: NCI-H1793
# Summary of the method: as §1
# NCI-H727 = system: NCI-H727
# Summary of the method: as §1
# LCLC-97TM1 = system: LCLC-97TM1
# Summary of the method: as §1
# NCI-H23 = system: NCI-H23
# Summary of the method: as §1
# H3255 = system: H3255
# Summary of the method: as §1
# NCI-H460 = system: NCI-H460
# Summary of the method: as §1
# PC-3 [JPC-3] = system: PC-3 [JPC-3]
# Summary of the method: as §1
# LCLC-103H = system: LCLC-103H
# Summary of the method: as §1
# COR-L23 = system: COR-L23
# Summary of the method: as §1
# SW 900 = system: SW 900
# Summary of the method: as §1
# RERF-LC-KJ = system: RERF-LC-KJ
# Summary of the method: as §1
# NCI-H1944 = system: NCI-H1944
# Summary of the method: as §1
# PC-14 = system: PC-14
# Summary of the method: as §1
# NCI-H1650 = system: NCI-H1650
# Summary of the method: as §1
# NCI-H650 = system: NCI-H650
# Summary of the method: as §1
# SW 1573 = system: SW 1573
# Summary of the method: as §1
# NCI-H2347 = system: NCI-H2347
# Summary of the method: as §1
smiles,measurement,setting,value
COc1cc(N2CCC(C(N)=O)CC2)ccc1Nc1nc(N)c(Cl)c(Nc2ccccc2S(=O)(=O)C(C)C)n1 [HG-5-88-01] + O=C(CCCCCCC(=O)Nc1ccccc1)NO [Vorinostat] (partner 1 µM),relative viability,201T; first compound 0.04 µM,0.984
same,relative viability,201T; first compound 0.1265 µM,0.94
same,relative viability,201T; first compound 1.265 µM,0.883
same,relative viability,201T; first compound 4 µM,1.11
same,relative viability,LU99A; first compound 0.04 µM,0.442
same,relative viability,LU99A; first compound 0.1265 µM,0.454
same,relative viability,LU99A; first compound 0.4 µM,0.522
same,relative viability,LU99A; first compound 1.265 µM,0.55
same,relative viability,LU99A; first compound 4 µM,0.436
same,relative viability,NCI-H838; first compound 0.04 µM,0.745
same,relative viability,NCI-H838; first compound 0.1265 µM,0.707
same,relative viability,NCI-H838; first compound 0.4 µM,0.651
same,relative viability,NCI-H838; first compound 1.265 µM,0.596
same,relative viability,NCI-H838; first compound 4 µM,0.53
same,relative viability,NCI-H1651; first compound 0.04 µM,0.509
same,relative viability,NCI-H1651; first compound 0.1265 µM,0.57
same,relative viability,NCI-H1651; first compound 0.4 µM,0.572
same,relative viability,NCI-H1651; first compound 1.265 µM,0.552
same,relative viability,NCI-H1651; first compound 4 µM,0.528
same,relative viability,A-427; first compound 0.04 µM,0.892
same,relative viability,A-427; first compound 0.1265 µM,0.859
same,relative viability,A-427; first compound 0.4 µM,0.884
same,relative viability,A-427; first compound 1.265 µM,0.912
same,relative viability,A-427; first compound 4 µM,0.726
same,relative viability,LK-2; first compound 0.04 µM,0.326
same,relative viability,LK-2; first compound 0.1265 µM,0.411
same,relative viability,LK-2; first compound 0.4 µM,0.466
same,relative viability,LK-2; first compound 4 µM,0.306
same,relative viability,NCI-H1793; first compound 0.04 µM,0.648
same,relative viability,NCI-H1793; first compound 0.1265 µM,0.95
same,relative viability,NCI-H1793; first compound 0.4 µM,0.725
same,relative viability,NCI-H1793; first compound 1.265 µM,0.575
same,relative viability,NCI-H1793; first compound 4 µM,0.53
same,relative viability,NCI-H727; first compound 0.04 µM,1.29
same,relative viability,NCI-H727; first compound 0.1265 µM,1.18
same,relative viability,NCI-H727; first compound 0.4 µM,1.19
same,relative viability,NCI-H727; first compound 4 µM,1.1
same,relative viability,LCLC-97TM1; first compound 0.04 µM,0.75
same,relative viability,LCLC-97TM1; first compound 0.1265 µM,0.757
same,relative viability,LCLC-97TM1; first compound 0.4 µM,0.62
same,relative viability,LCLC-97TM1; first compound 1.265 µM,0.645
same,relative viability,LCLC-97TM1; first compound 4 µM,0.126
same,relative viability,NCI-H23; first compound 0.04 µM,0.793
same,relative viability,NCI-H23; first compound 0.1265 µM,0.752
same,relative viability,NCI-H23; first compound 0.4 µM,0.609
same,relative viability,NCI-H23; first compound 1.265 µM,0.538
same,relative viability,NCI-H23; first compound 4 µM,0.307
same,relative viability,H3255; first compound 0.04 µM,0.77
same,relative viability,H3255; first compound 0.1265 µM,0.907
same,relative viability,H3255; first compound 0.4 µM,0.729
same,relative viability,H3255; first compound 4 µM,0.741
same,relative viability,NCI-H460; first compound 0.04 µM,0.72
same,relative viability,NCI-H460; first compound 0.1265 µM,0.737
same,relative viability,NCI-H460; first compound 0.4 µM,0.678
same,relative viability,NCI-H460; first compound 1.265 µM,0.783
same,relative viability,NCI-H460; first compound 4 µM,0.595
same,relative viability,PC-3 [JPC-3]; first compound 0.04 µM,0.879
same,relative viability,PC-3 [JPC-3]; first compound 0.1265 µM,0.756
same,relative viability,PC-3 [JPC-3]; first compound 0.4 µM,0.58
same,relative viability,PC-3 [JPC-3]; first compound 1.265 µM,0.724
same,relative viability,PC-3 [JPC-3]; first compound 4 µM,0.303
same,relative viability,LCLC-103H; first compound 0.04 µM,0.826
same,relative viability,LCLC-103H; first compound 0.1265 µM,0.767
same,relative viability,LCLC-103H; first compound 0.4 µM,0.65
same,relative viability,LCLC-103H; first compound 1.265 µM,0.757
same,relative viability,LCLC-103H; first compound 4 µM,0.605
same,relative viability,COR-L23; first compound 0.04 µM,0.496
same,relative viability,COR-L23; first compound 0.1265 µM,0.381
same,relative viability,COR-L23; first compound 0.4 µM,0.355
same,relative viability,COR-L23; first compound 1.265 µM,0.364
same,relative viability,COR-L23; first compound 4 µM,0.227
same,relative viability,SW 900; first compound 0.04 µM,0.583
same,relative viability,SW 900; first compound 0.1265 µM,0.334
same,relative viability,SW 900; first compound 0.4 µM,0.525
same,relative viability,SW 900; first compound 1.265 µM,0.447
same,relative viability,SW 900; first compound 4 µM,0.354
same,relative viability,RERF-LC-KJ; first compound 0.04 µM,0.73
same,relative viability,RERF-LC-KJ; first compound 0.1265 µM,0.703
same,relative viability,RERF-LC-KJ; first compound 0.4 µM,0.624
same,relative viability,RERF-LC-KJ; first compound 1.265 µM,0.691
same,relative viability,RERF-LC-KJ; first compound 4 µM,0.405
same,relative viability,NCI-H1944; first compound 0.04 µM,0.623
same,relative viability,NCI-H1944; first compound 0.1265 µM,0.627
same,relative viability,NCI-H1944; first compound 0.4 µM,0.645
same,relative viability,NCI-H1944; first compound 1.265 µM,0.55
same,relative viability,NCI-H1944; first compound 4 µM,0.568
same,relative viability,PC-14; first compound 0.04 µM,0.813
same,relative viability,PC-14; first compound 0.1265 µM,0.759
same,relative viability,PC-14; first compound 0.4 µM,0.656
same,relative viability,PC-14; first compound 1.265 µM,0.261
same,relative viability,PC-14; first compound 4 µM,0.155
same,relative viability,NCI-H1650; first compound 0.04 µM,0.577
same,relative viability,NCI-H1650; first compound 0.1265 µM,0.654
same,relative viability,NCI-H1650; first compound 0.4 µM,0.541
same,relative viability,NCI-H1650; first compound 1.265 µM,0.526
same,relative viability,NCI-H1650; first compound 4 µM,0.46
same,relative viability,NCI-H650; first compound 0.04 µM,0.409
same,relative viability,NCI-H650; first compound 0.1265 µM,0.402
same,relative viability,NCI-H650; first compound 0.4 µM,0.386
same,relative viability,NCI-H650; first compound 1.265 µM,0.424
same,relative viability,NCI-H650; first compound 4 µM,0.29
same,relative viability,SW 1573; first compound 0.04 µM,0.657
same,relative viability,SW 1573; first compound 0.1265 µM,0.896
same,relative viability,SW 1573; first compound 0.4 µM,0.816
same,relative viability,SW 1573; first compound 1.265 µM,0.755
same,relative viability,SW 1573; first compound 4 µM,0.851
same,relative viability,NCI-H2347; first compound 0.04 µM,0.52
same,relative viability,NCI-H2347; first compound 0.1265 µM,0.544
same,relative viability,NCI-H2347; first compound 0.4 µM,0.731
same,relative viability,NCI-H2347; first compound 1.265 µM,0.553
same,relative viability,NCI-H2347; first compound 4 µM,0.577
